Laboratory results from patent US20240131168A1, “NAPHTHALENE RING-CONTAINING COMPOUND, PHARMACEUTICAL COMPOSITION CONTAINING SAME, AND USE THEREOF” (JIANGSU YAHONG MEDITECH CO., LTD., priority 2021, published 2024).
pIC50: −log10 of the molar value.

What was measured:
Assay type in all cases: cell-based
MCF-7 = assay: CellTiter-Glo cell proliferation inhibition, MCF-7 (Effect Example 2); details: Homo sapiens, MCF7, 144 h, MCF-7 (CTG), 6 days, starting concentration 10 μM; for inhibition at up to 10 µM: read-out: IH % max (maximum inhibition percentage)
Method in brief: (§1)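 MCF-7, TamR-MCF-7, and CRISPR-edited MCF-7 ER D538G or Y537S cells were seeded at 1,000 or 2,000 cells/well in EMEM and cultured 24 h. They were then exposed to a 4-fold, 10-point series (top 10 µM before addition to wells) for 6 days or 72 h at 37 °C. CellTiter-Glo luminescence gave IC50 and maximum % inhibition.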

MCF-7 ER^D538G = assay: CellTiter-Glo cell proliferation inhibition, MCF-7 ER^D538G; details: Homo sapiens, MCF7, 144 h, MCF-7 ER^D538G (CTG), 6 days, starting concentration 10 μM; for inhibition at up to 10 µM: read-out: IH % max (maximum inhibition percentage)
Method in brief: as §1

MCF-7 ER^Y537S = assay: CellTiter-Glo cell proliferation inhibition, MCF-7 ER^Y537S; details: Homo sapiens, MCF7, 144 h; MCF-7 ER^Y537S (CTG), 6 days, starting concentration 10 μM; read-out: IH % max (maximum inhibition percentage)
Method in brief: as §1

TamR-MCF-7 = assay: CellTiter-Glo cell proliferation inhibition, TamR-MCF-7; details: 144 h; TamR-MCF-7 (CTG), 6 days, starting concentration 10 μM; read-out: IH % max (maximum inhibition percentage)
Method in brief: as §1

MDA-MB-231 = assay: CellTiter-Glo cell proliferation inhibition, MDA-MB-231; details: Homo sapiens, 144 h; MDA-MB-231 (CTG), 6 days, starting concentration 10 μM; read-out: IH % max (maximum inhibition percentage)
MDA-MB-468 = assay: CellTiter-Glo cell proliferation inhibition, MDA-MB-468; details: Homo sapiens, 144 h; MDA-MB-468 (CTG), 6 days, starting concentration 10 μM; read-out: IH % max (maximum inhibition percentage)

pIC50 (MCF-7) | pIC50 (MCF-7 ER^D538G) | Compound | inhibition at up to 10 µM (MCF-7) [%] | inhibition at up to 10 µM (MCF-7 ER^D538G) [%] | inhibition at up to 10 µM (MCF-7 ER^Y537S) [%] | inhibition at up to 10 µM (TamR-MCF-7) [%] | inhibition at up to 10 µM (MDA-MB-231) [%] | inhibition at up to 10 µM (MDA-MB-468) [%]
6.31 | – | C[C@@H]1CN(CCOCC(=O)N2CCN(c3ccc4c(c3)C(=O)N(C3CCC(=O)NC3=O)C4=O)CC2)[C@@H](C)CN1CCOc1ccc(Oc2c(-c3ccc(S(C)(=O)=O)cc3)ccc3cc(O)ccc23)cc1 (stereo partly drawn) [Compound D15, 2-(2,6-dioxopiperidin-3-yl)-5-(4-(2-(2-((2S,5R)-4-(2-(4-((6-hydroxy-2-(4-(methylsulfonyl)phenyl)naphthalen-1-yl)oxy)phenoxy)ethyl)-2,5-dimethylpiperazin-1-yl)ethoxy)acetyl)piperazin-1-yl)isoindoline-1,3-dione] | 51 | 48 | 46 | – | – | –
– | – | CS(=O)(=O)c1ccc(-c2ccc3cc(O)ccc3c2Oc2ccc(OCCOCCOCCOCCN3CCN(c4ccc5c(c4)C(=O)N(C4CCC(=O)NC4=O)C5=O)CC3)cc2)cc1 (stereo not shown) [Compound D19] | 44 | 73 | – | 39 | – | –
– | – | CS(=O)(=O)c1ccc(-c2ccc3cc(O)ccc3c2Oc2ccc(OCCOCCOCCN3CCN(c4ccc5c(c4)C(=O)N(C4CCC(=O)NC4=O)C5)CC3)cc2)cc1 (stereo not shown) [Compound D22, 3-(6-(4-(2-(2-(2-(4-((6-hydroxy-2-(4-(methylsulfonyl)phenyl)naphthalen-1-yl)oxy)phenoxy)ethoxy)ethoxy)ethyl)piperazin-1-yl)-1-oxoisoindolin-2-yl)piperidine-2,6-dione] | 38 | 61 | – | 33 | 36 | –
– | – | CS(=O)(=O)c1ccc(-c2ccc3cc(O)ccc3c2Oc2ccc(OCCOCCOCCOCCN3CCN(c4ccc5c(c4)C(=O)N(C4CCC(=O)NC4=O)C5)CC3)cc2)cc1 (stereo not shown) [Compound D21] | 44 | 55 | – | – | – | –
– | – | CS(=O)(=O)c1ccc(-c2ccc3cc(O)ccc3c2Oc2ccc(OCCCCN3CCN(c4ccc5c(c4)CN(C4CCC(=O)NC4=O)C5=O)CC3)cc2)cc1 (stereo not shown) [Compound D59, 3-(5-(4-(4-(4-((6-hydroxy-2-(4-(methylsulfonyl)phenyl)naphthalen-1-yl)oxy)phenoxy)butyl)piperazin-1-yl)-1-oxoisoindolin-2-yl)piperidine-2,6-dione] | 37 | – | – | – | – | –
6.27 | – | CS(=O)(=O)c1ccc(-c2ccc3cc(O)ccc3c2Oc2ccc(OCCOCCOCCN3CCN(c4ccc5c(c4)CN(C4CCC(=O)NC4=O)C5=O)CC3)cc2)cc1 (stereo not shown) [Compound D30] | 55 | 65 | – | 30 | – | –
– | 6.10 | CS(=O)(=O)c1ccc(-c2ccc3cc(O)ccc3c2Oc2ccc(N3CCN(CCCCCOCC(=O)N4CCN(c5ccc6c(c5)CN(C5CCC(=O)NC5=O)C6=O)CC4)CC3)cc2)cc1 (stereo not shown) [Compound D11, 3-(5-(4-(2-((5-(4-(4-((6-hydroxy-2-(4-(methylsulfonyl)phenyl)naphthalen-1-yl)oxy)phenyl)piperazin-1-yl)pentyl)oxy)acetyl)piperazin-1-yl)-1-oxoisoindolin-2-yl)piperidine-2,6-dione] | 45 | 54 | 52 | – | – | –
– | – | CS(=O)(=O)c1ccc(-c2ccc3cc(O)ccc3c2Oc2ccc(OCCOCCOCCOCCOc3ccc4c(c3)C(=O)N(C3CCC(=O)NC3=O)C4)cc2)cc1 (stereo not shown) [Compound D35, 3-(6-(2-(2-(2-(2-(4-((6-hydroxy-2-(4-(methylsulfonyl)phenyl)naphthalen-1-yl)oxy)phenoxy)ethoxy)ethoxy)ethoxy)ethoxy)-1-oxoisoindolin-2-yl)piperidine-2,6-dione] | 45 | 39 | – | – | – | –
6.67 | 6.25 | CCN(CCOCCOCCN1CCN(c2ccc3c(c2)C(=O)N(C2CCC(=O)NC2=O)C3=O)CC1)CCOc1ccc(Oc2c(-c3ccc(S(C)(=O)=O)cc3)ccc3cc(O)ccc23)cc1 (stereo not shown) [Compound D28, 2-(2,6-dioxopiperidin-3-yl)-5-(4-(2-(2-(2-(ethyl(2-(4-((6-hydroxy-2-(4-(methylsulfonyl)phenyl)naphthalen-1-yl)oxy)phenoxy)ethyl)amino)ethoxy)ethoxy)ethyl)piperazin-1-yl)isoindoline-1,3-dione] | 53 | 81 | 49 | 42 | 68 | –
– | – | CCN(CCCCCN(C)CC(=O)N1CCN(c2ccc3c(c2)C(=O)N(C2CCC(=O)NC2=O)C3=O)CC1)CCOc1ccc(Oc2c(-c3ccc(S(C)(=O)=O)cc3)ccc3cc(O)ccc23)cc1 (stereo not shown) [Compound D31, 2-(2,6-dioxopiperidin-3-yl)-5-(4-(N-(5-(ethyl(2-(4-((6-hydroxy-2-(4-(methylsulfonyl))phenyl)naphthalen-1-yl)oxy)phenoxy)ethyl)aminopentyl)-N-methylglycyl)piperazin-1-yl)isoindoline-1,3-dione] | 32 | 90 | 73 | – | 56 | 100
6.62 | 6.02 | C[C@@H]1CN(CCOc2ccc(Oc3c(-c4ccc(S(C)(=O)=O)cc4)ccc4cc(O)ccc34)cc2)[C@@H](C)CN1CCOCC(=O)N1CCN(c2ccc3c(c2)CN(C2CCC(=O)NC2=O)C3=O)CC1 (stereo partly drawn) [Compound D9, 3-(5-(4-(2-(2-((2R,5S)-4-(2-(4-((6-hydroxy-2-(4-(methylsulfonyl)phenyl)naphthalen-1-yl)oxy)phenoxy)ethyl)-2,5-dimethylpiperazin-1-yl)ethoxy)acetyl)piperazin-1-yl)-1-oxoisoindolin-2-yl)piperidine-2,6-dione] | 60 | 65 | 34 | 31 | – | 60
7.16 | 6.74 | CCN(CCOc1ccc(Oc2c(-c3ccc(S(C)(=O)=O)cc3)ccc3cc(O)ccc23)cc1)C(=O)c1ccc(CCC2CCN(C3CCN(c4ccc5c(c4)C(=O)N(C4CCC(=O)NC4=O)C5=O)CC3)CC2)cc1 (stereo not shown) [Compound D34, 4-(2-(1′-(2-(2,6-dioxopiperidin-3-yl)-1,3-dioxoisoindolin-5-yl)-[1,4′-bipiperidin]-4-yl)ethyl)-N-ethyl-N-(2-(4-((6-hydroxy-2-(4-(methylsulfonyl)phenyl)naphthalen-1-yl)oxy)phenoxy)ethyl)benzamide] | 52 | 82 | 60 | 41 | 37 | –
– | – | CCN(CCOc1ccc(Oc2c(-c3ccc(S(C)(=O)=O)cc3)ccc3cc(O)ccc23)cc1)CC(=O)N1CCN(c2ccc3c(c2)C(=O)N(C2CCC(=O)NC2=O)C3=O)CC1 (stereo not shown) [Compound D8, 2-(2,6-dioxopiperidin-3-yl)-5-(4-(N-ethyl-N-(2-(4-((6-hydroxy-2-(4-(methylsulfonyl)phenyl)naphthalen-1-yl)oxy)phenoxy)ethyl)glycyl)piperazin-1-yl)isoindoline-1,3-dione] | 56 | 44 | 33 | 35 | – | 68
